Source: paper PMC3627577 (2013)
Starred links: 1 amine or outer side, 2 acyl side, 3 side chain; linkers in the order of their positions; H or OH if unused. Positions of bridges follow the written chain, without caps; N, C: chain ends. Non-standard residues stand in square brackets, D forms with d. Residues, ends and D or L forms follow the SMILES beside them. Chains are numbered I, II in the order given. Actinocin(9to1) = Cc1c2oc3c(C)ccc(C(=O)[*:1])c3nc-2c(C(=O)[*:2])c(N)c1=O; NMeV = CN[C@H](C(=O)O)C(C)C; Sar = CNCC(=O)O

Experiments:
[1] = tested on: (CGG)16 (DNA, repeat) CGGCGGCGGCGGCGGCGGCGGCGGCGGCGGCGGCGGCGGCGGCGGCGG; assay: UV melting, 260 nm; settings: 50 mM NaCl; 20 mM Tris-HCl pH 7.3; 12 μM compound, 1 μM DNA
[2] = tested on: AT2 hairpin (DNA, hairpin) ATGCATGCATTGTATGCATGCAT; assay: SPR kinetics, bivalent ligand model; settings: 50 mM NaCl; 20 mM Tris-HCl pH 7.3; ka/kd; site 1 of 2
[3] = tested on: GC2 hairpin (DNA, hairpin) ATGCGCATTGTATGCGCAT; assay: SPR kinetics, bivalent ligand model; settings: 50 mM NaCl; 20 mM Tris-HCl pH 7.3; ka/kd; site 1 of 2
[4] = tested on: GC1 hairpin (DNA, hairpin) AAAGCTTTTGTAAAGCTTT; assay: SPR kinetics, 1:1 Langmuir; settings: 50 mM NaCl; 20 mM Tris-HCl pH 7.3; ka/kd
[5] = tested on: GG2 hairpin (DNA, hairpin) ATGCGGCATTGTATGCGGCAT; assay: SPR kinetics, bivalent ligand model; settings: 50 mM NaCl; 20 mM Tris-HCl pH 7.3; ka/kd; site 1 of 2

| SMILES | ΔTm [1] [°C] | Ka1 [2] [M⁻¹] | Ka1 [3] [M⁻¹] | Ka1 [4] [M⁻¹] | Ka1 [5] [M⁻¹] |
| --- | --- | --- | --- | --- | --- |
| COc1cccc2c1C(=O)c1c(O)c3c(c(O)c1C2=O)C[C@@](O)(C(C)=O)C[C@@H]3O[C@H]1C[C@H](N)[C@H](O)[C@H](C)O1 | 10.1 |  |  |  |  |
| Cc1c2ccncc2c(C)c2c1[nH]c1ccccc12 | 11.8 |  |  |  |  |
| Cc1c2oc3c(C)ccc(C(=O)N[C@@H]4C(=O)N[C@H](C(C)C)C(=O)N5CCC[C@H]5C(=O)N(C)CC(=O)N(C)[C@@H](C(C)C)C(=O)O[C@@H]4C)c3nc-2c(C(=O)N[C@@H]2C(=O)N[C@H](C(C)C)C(=O)N3CCC[C@H]3C(=O)N(C)CC(=O)N(C)[C@@H](C(C)C)C(=O)O[C@@H]2C)c(N)c1=O (I: T[dV]P[Sar][NMeV] / II: T[dV]P[Sar][NMeV]; ester I:1-I:C, II:1-II:C; linker I:N-II:N via Actinocin(9to1)) | 23.4 | 1.287e+07 | 6.07e+06 | 2.29e+06 | 3.08e+06 |
